{"source": "paper PMC10247784", "about": "“Physiological activation of human and mouse bitter taste receptors by bile acids” (Communications Biology, 2023)", "target": "T1, human TAS2R4 (Homo sapiens, UniProt Q9NYW5)", "T1 construct": "expressed in transfected cells; host or cells: HEK293T-Gα16gust44", "T1 sequence (Q9NYW5 1-299)": "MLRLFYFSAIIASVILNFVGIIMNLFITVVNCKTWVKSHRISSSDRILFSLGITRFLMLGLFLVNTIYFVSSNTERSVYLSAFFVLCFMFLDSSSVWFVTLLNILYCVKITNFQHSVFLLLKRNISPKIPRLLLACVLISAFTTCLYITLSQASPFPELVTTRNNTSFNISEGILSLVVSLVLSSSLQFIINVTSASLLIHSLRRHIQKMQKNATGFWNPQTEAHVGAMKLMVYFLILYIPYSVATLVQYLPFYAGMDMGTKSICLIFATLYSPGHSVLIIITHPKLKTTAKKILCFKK", "assay": "Calcium imaging assay (FLIPR), HEK293T-Gα16gust44 cells transfected with human TAS2R4", "type": "cell-based", "summary_of_the_method": "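Fluo-4 calcium responses; ΔF/F corrected for mock transfection and buffer control; triplicate independent dose-response runs; p < 0.01 threshold.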", "note": "Where “and” joins values, the source holds several entries; their conditions need not be identical. Equal values may be shown once."}
{"smiles": "C[C@H](CCC(=O)NCC(=O)O)[C@H]1CC[C@H]2[C@@H]3[C@H](O)C[C@@H]4C[C@H](O)CC[C@]4(C)[C@H]3C[C@H](O)[C@]12C", "note": "[Glycocholic Acid, glycocholic acid]", "values": [{"measurement": "Efficacy = maximal amplitude (ΔF/F)", "setting": "TAS2R4, bile acids, mean", "result": 0.1626}, {"measurement": "Efficacy (maximal amplitude ΔF/F), individual data points", "setting": "TAS2R4, bile acids, single replicates, listed as GCA", "result": "0.1367 and 0.1786 and 0.1725"}, {"measurement": "Δ F/F", "setting": "TAS2R4, conc. 0,01 mM", "result": 0.01565}, {"measurement": "Δ F/F", "setting": "TAS2R4, conc. 0,1 mM", "result": 0.106}, {"measurement": "Δ F/F", "setting": "TAS2R4, conc. 0,03 mM", "result": 0.03923}, {"measurement": "Δ F/F", "setting": "TAS2R4, conc. 0,3 mM", "result": 0.1626}, {"measurement": "Δ F/F", "setting": "TAS2R4, conc. 0,001 mM", "result": 0.006443}, {"measurement": "Δ F/F", "setting": "TAS2R4, conc. 0,003 mM", "result": 0.006613}, {"measurement": "RLU, fluorescence trace", "setting": "Time (s) 0", "result": 0, "unit": "RLU"}, {"measurement": "RLU, fluorescence trace", "setting": "Time (s) 2", "result": 4.14, "unit": "RLU"}, {"measurement": "RLU, fluorescence trace", "setting": "Time (s) 4", "result": -20.6032, "unit": "RLU"}, {"measurement": "RLU, fluorescence trace", "setting": "Time (s) 6", "result": -25.8877, "unit": "RLU"}, {"measurement": "RLU, fluorescence trace", "setting": "Time (s) 8", "result": -29.799, "unit": "RLU"}, {"measurement": "RLU, fluorescence trace", "setting": "Time (s) 12", "result": -12.9106, "unit": "RLU"}, {"measurement": "RLU, fluorescence trace", "setting": "Time (s) 14", "result": -6.673, "unit": "RLU"}, {"measurement": "RLU, fluorescence trace", "setting": "Time (s) 16", "result": -18.2287, "unit": "RLU"}, {"measurement": "RLU, fluorescence trace", "setting": "Time (s) 18", "result": -27.0676, "unit": "RLU"}, {"measurement": "RLU, fluorescence trace", "setting": "Time (s) 18.766 (TCA, TLCA: 18.782)", "result": -34.2066, "unit": "RLU"}, {"measurement": "RLU, fluorescence trace", "setting": "Time (s) 20.781 (TCA, TLCA: 20.782)", "result": -42.9373, "unit": "RLU"}, {"measurement": "RLU, fluorescence trace", "setting": "Time (s) 22.781 (TCA, TLCA: 22.782)", "result": 15.1075, "unit": "RLU"}, {"measurement": "RLU, fluorescence trace", "setting": "Time (s) 24.781 (TCA, TLCA: 24.782)", "result": 91.6518, "unit": "RLU"}, {"measurement": "RLU, fluorescence trace", "setting": "Time (s) 26.781 (TCA, TLCA: 26.782)", "result": 179.573, "unit": "RLU"}, {"measurement": "RLU, fluorescence trace", "setting": "Time (s) 28.781 (TCA, TLCA: 28.782)", "result": 304.257, "unit": "RLU"}, {"measurement": "RLU, fluorescence trace", "setting": "Time (s) 30.781 (TCA, TLCA: 30.782)", "result": 388.704, "unit": "RLU"}, {"measurement": "RLU, fluorescence trace", "setting": "Time (s) 32.781 (TCA, TLCA: 32.782)", "result": 524.444, "unit": "RLU"}, {"measurement": "RLU, fluorescence trace", "setting": "Time (s) 34.781 (TCA, TLCA: 34.782)", "result": 591.908, "unit": "RLU"}, {"measurement": "RLU, fluorescence trace", "setting": "Time (s) 36.781 (TCA, TLCA: 36.782)", "result": 664.761, "unit": "RLU"}, {"measurement": "RLU, fluorescence trace", "setting": "Time (s) 38.781 (TCA, TLCA: 38.782)", "result": 747.083, "unit": "RLU"}, {"measurement": "RLU, fluorescence trace", "setting": "Time (s) 40.781 (TCA, TLCA: 40.782)", "result": 780.753, "unit": "RLU"}, {"measurement": "RLU, fluorescence trace", "setting": "Time (s) 42.781 (TCA, TLCA: 42.782)", "result": 820.227, "unit": "RLU"}, {"measurement": "RLU, fluorescence trace", "setting": "Time (s) 44.781 (TCA, TLCA: 44.782)", "result": 854.725, "unit": "RLU"}, {"measurement": "RLU, fluorescence trace", "setting": "Time (s) 46.781 (TCA, TLCA: 46.782)", "result": 885.437, "unit": "RLU"}, {"measurement": "RLU, fluorescence trace", "setting": "Time (s) 48.781 (TCA, TLCA: 48.782)", "result": 869.015, "unit": "RLU"}, {"measurement": "RLU, fluorescence trace", "setting": "Time (s) 50.781 (TCA, TLCA: 50.782)", "result": 904.393, "unit": "RLU"}, {"measurement": "RLU, fluorescence trace", "setting": "Time (s) 52.781 (TCA, TLCA: 52.782)", "result": 904.624, "unit": "RLU"}, {"measurement": "RLU, fluorescence trace", "setting": "Time (s) 54.781 (TCA, TLCA: 54.782)", "result": 934.879, "unit": "RLU"}, {"measurement": "RLU, fluorescence trace", "setting": "Time (s) 56.781 (TCA, TLCA: 56.782)", "result": 910.42, "unit": "RLU"}, {"measurement": "RLU, fluorescence trace", "setting": "Time (s) 58.781 (TCA, TLCA: 58.782)", "result": 920.415, "unit": "RLU"}, {"measurement": "RLU, fluorescence trace", "setting": "Time (s) 60.781 (TCA, TLCA: 60.782)", "result": 939.945, "unit": "RLU"}, {"measurement": "RLU, fluorescence trace", "setting": "Time (s) 62.781 (TCA, TLCA: 62.782)", "result": 894.354, "unit": "RLU"}, {"measurement": "RLU, fluorescence trace", "setting": "Time (s) 64.781 (TCA, TLCA: 64.782)", "result": 892.209, "unit": "RLU"}, {"measurement": "RLU, fluorescence trace", "setting": "Time (s) 66.781 (TCA, TLCA: 66.782)", "result": 883.058, "unit": "RLU"}, {"measurement": "RLU, fluorescence trace", "setting": "Time (s) 68.781 (TCA, TLCA: 68.782)", "result": 897.442, "unit": "RLU"}, {"measurement": "RLU, fluorescence trace", "setting": "Time (s) 70.781 (TCA, TLCA: 70.782)", "result": 864.365, "unit": "RLU"}, {"measurement": "RLU, fluorescence trace", "setting": "Time (s) 72.781 (TCA, TLCA: 72.782)", "result": 888.719, "unit": "RLU"}, {"measurement": "RLU, fluorescence trace", "setting": "Time (s) 74.781 (TCA, TLCA: 74.782)", "result": 833.342, "unit": "RLU"}, {"measurement": "RLU, fluorescence trace", "setting": "Time (s) 76.781 (TCA, TLCA: 76.782)", "result": 856.102, "unit": "RLU"}, {"measurement": "RLU, fluorescence trace", "setting": "Time (s) 78.781 (TCA, TLCA: 78.782)", "result": 820.296, "unit": "RLU"}, {"measurement": "RLU, fluorescence trace", "setting": "Time (s) 80.781 (TCA, TLCA: 80.782)", "result": 794.483, "unit": "RLU"}, {"measurement": "RLU, fluorescence trace", "setting": "Time (s) 82.781 (TCA, TLCA: 82.782)", "result": 818.87, "unit": "RLU"}, {"measurement": "RLU, fluorescence trace", "setting": "Time (s) 84.781 (TCA, TLCA: 84.782)", "result": 756.604, "unit": "RLU"}, {"measurement": "RLU, fluorescence trace", "setting": "Time (s) 86.781 (TCA, TLCA: 86.782)", "result": 753.892, "unit": "RLU"}, {"measurement": "RLU, fluorescence trace", "setting": "Time (s) 88.781 (TCA, TLCA: 88.782)", "result": 732.115, "unit": "RLU"}, {"measurement": "RLU, fluorescence trace", "setting": "Time (s) 90.781 (TCA, TLCA: 90.782)", "result": 726.989, "unit": "RLU"}]}
